Consider three compounds from patent US9895369B2, “Stable and soluble formulations of receptor tyrosine kinase inhibitors, and methods of preparation thereof” (ForSight Vision4, Inc., priority 2014, dated 2018).

Series [1] can be described thus: pH comparison of pazopanib/CAPTISOL solutions with similar composition. In kind it is physicochemical. To be noted: about 22.4 mg pazopanib salt + about 157 mg CAPTISOL (1.5x molar ratio to drug) in 1 mL water. The text has this:
From the results of the pH and the chloride content analysis it is concluded that the pharmaceutical ingredient from sample-1 contains 2-HCl per each pazopanib molecule, compared to active from sample-2, which contains only 1 HCl/per drug molecule.

Series [2] can be described thus: Precipitation during ambient (room temperature) storage of the formulation. The series is classed as physicochemical. The settings on record: high drug concentration; crystallized out during storage and during drug release.

For the compound `Cc1ccc(Nc2nccc(N(C)c3ccc4c(C)n(C)nc4c3)n2)cc1S(N)(=O)=O` [Pazopanib-Sample 1, 5-[[4-[(2,3-Dimethyl-2H-indazol-6-yl)methylamino]-2-pyrimidinyl]amino]-2-methylbenzolsulfonamide], the “pH, measured” value in series [1] turned out to be 1.68.

As for `Cc1ccc(Nc2nccc(N(C)c3ccc4c(C)n(C)nc4c3)n2)cc1S(N)(=O)=O` [Pazopanib-Sample 2 (1HCl), 5-[[4-[(2,3-Dimethyl-2H-indazol-6-yl)methylamino]-2-pyrimidinyl]amino]-2-methylbenzolsulfonamide], the “pH, measured” value in series [1] came to 3.36. Further, in series [2], the “Stability of high concentration formulations (on shelf and upon dilution)” value is “very unstable”.

With `Cc1ccc(Nc2nccc(N(C)c3ccc4c(C)n(C)nc4c3)n2)cc1S(N)(=O)=O` [Pazopanib-Sample 2-lyophilized-TFE (1HCl)] [5-[[4-[(2,3-Dimethyl-2H-indazol-6-yl)methylamino]-2-pyrimidinyl]amino]-2-methylbenzolsulfonamide], the “pH, measured” value in series [1] was 3.34.
